Measured values as given in patent US3958000A, “Fungicidal 2-arylthio-, 2-alkylthio- and 2-haloalkylthio-1,2,4-oxadiazolidine-3,5-diones” (Chevron Research Company, priority 1975, dated 1976).

Experiments:
Type in all cases: cell-based
Botrytis cinerea = assay: Fungal spore control (spore slide-germination) against Botrytis cinerea; conditions: Conc. 10 ppm, overnight in moist chamber, read-out: % Control (percent inhibition of germination of fungus spores)
Alternaria solani = assay: Fungal spore control (spore slide-germination) against Alternaria solani; conditions: Conc. 4 ppm, overnight in moist chamber, read-out: % Control (percent inhibition of germination of fungus spores)
Monolinia fructicola = assay: Fungal spore control (spore slide-germination) against Monolinia fructicola; conditions: Conc. 10 ppm, overnight in moist chamber, read-out: % Control (percent inhibition of germination of fungus spores)

| Compound | inhibition at 10 ppm (Botrytis cinerea) [%] | inhibition at 4 ppm (Alternaria solani) [%] | inhibition at 10 ppm (Monolinia fructicola) [%] |
| --- | --- | --- | --- |
| CC(C)n1c(=O)on(SC(Cl)(Cl)Cl)c1=O [Compound 3] | 100 | 99 | 100 |
| O=c1on(SC(Cl)(Cl)Cl)c(=O)n1C1CCCCC1 [Compound 1, 2-trichloromethylthio-4-cyclohexyl-1,2,4-oxadiazolidine-3,5-dione] | 100 | 78 | 100 |
